Test results published in ChEMBL document CHEMBL5038659, “Discovery of the First Examples of Threonine Tyrosine Kinase PROTAC Degraders” (J Med Chem, 2022).
The source made the active and inactive calls. The calls are words filed in the database; no cut-off is given here.

Columns and labels:
[1] = molecular target: T1, Protein cereblon/Dual specificity protein kinase TTK (Homo sapiens, UniProt P33981+Q96SW2); experiment: Protac activity at CRBN/TTK in human HCT-116 cells assessed as degradation of TTK measured after 6 hrs by Western blotting analysis; assay type: cell-based
Target sequence in this assay (P33981 whole entry): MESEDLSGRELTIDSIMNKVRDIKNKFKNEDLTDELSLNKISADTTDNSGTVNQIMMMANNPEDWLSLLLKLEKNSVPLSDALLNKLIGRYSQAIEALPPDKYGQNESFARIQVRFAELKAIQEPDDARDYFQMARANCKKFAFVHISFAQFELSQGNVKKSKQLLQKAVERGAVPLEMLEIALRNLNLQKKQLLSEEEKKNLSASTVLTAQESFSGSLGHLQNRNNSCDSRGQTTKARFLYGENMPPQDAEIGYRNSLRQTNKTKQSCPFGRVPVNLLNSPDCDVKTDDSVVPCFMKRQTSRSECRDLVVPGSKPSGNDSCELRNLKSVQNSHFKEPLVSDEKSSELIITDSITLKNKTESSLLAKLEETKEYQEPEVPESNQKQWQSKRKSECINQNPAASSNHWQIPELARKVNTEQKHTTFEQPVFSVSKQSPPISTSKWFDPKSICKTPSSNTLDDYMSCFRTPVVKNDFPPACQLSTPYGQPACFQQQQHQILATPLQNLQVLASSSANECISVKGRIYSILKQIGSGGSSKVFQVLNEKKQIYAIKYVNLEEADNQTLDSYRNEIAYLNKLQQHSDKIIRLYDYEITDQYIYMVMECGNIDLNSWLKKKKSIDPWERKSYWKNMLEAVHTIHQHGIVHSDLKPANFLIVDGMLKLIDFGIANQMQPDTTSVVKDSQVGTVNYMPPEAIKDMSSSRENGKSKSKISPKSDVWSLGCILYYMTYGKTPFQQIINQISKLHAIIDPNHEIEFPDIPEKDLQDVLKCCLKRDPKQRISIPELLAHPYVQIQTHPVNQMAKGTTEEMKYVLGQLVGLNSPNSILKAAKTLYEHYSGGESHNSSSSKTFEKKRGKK
Target sequence in this assay (Q96SW2 whole entry): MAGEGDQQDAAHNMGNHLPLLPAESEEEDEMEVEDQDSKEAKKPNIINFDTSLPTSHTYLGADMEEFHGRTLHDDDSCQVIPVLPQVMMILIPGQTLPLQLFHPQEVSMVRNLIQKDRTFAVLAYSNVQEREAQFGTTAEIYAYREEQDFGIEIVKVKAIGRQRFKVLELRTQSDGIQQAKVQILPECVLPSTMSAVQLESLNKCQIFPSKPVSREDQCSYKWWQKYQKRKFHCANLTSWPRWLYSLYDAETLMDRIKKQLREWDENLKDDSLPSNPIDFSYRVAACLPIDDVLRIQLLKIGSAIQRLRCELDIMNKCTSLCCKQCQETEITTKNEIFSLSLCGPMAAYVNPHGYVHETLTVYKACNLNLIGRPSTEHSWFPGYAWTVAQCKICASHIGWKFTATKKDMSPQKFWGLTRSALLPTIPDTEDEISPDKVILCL

[2] = molecular target: T1, Protein cereblon/Dual specificity protein kinase TTK; experiment: Protac activity at CRBN/TTK in human HCT-116 cells assessed as TTK degradation by measuring maximum degradation after 6 hrs by Western blotting analysis relative to control; assay type: cell-based
Target sequence in this assay (P33981 whole entry, looked up): as the sequence (P33981 whole entry) above
Target sequence in this assay (Q96SW2 whole entry, looked up): as the sequence (Q96SW2 whole entry) above

[3] = molecular target: T1, Protein cereblon/Dual specificity protein kinase TTK; experiment: Protac activity at CRBN/TTK in human COLO 205 cells assessed as TTK degradation by measuring maximum degradation after 6 hrs by Western blotting analysis relative to control; assay type: cell-based
Target sequence in this assay (P33981 whole entry, looked up): as the sequence (P33981 whole entry) above
Target sequence in this assay (Q96SW2 whole entry, looked up): as the sequence (Q96SW2 whole entry) above

[4] = molecular target: T1, Protein cereblon/Dual specificity protein kinase TTK; experiment: Protac activity at CRBN/TTK in human COLO 205 cells assessed as degradation of TTK measured after 6 hrs by Western blotting analysis; assay type: cell-based
Target sequence in this assay (P33981 whole entry): as the sequence (P33981 whole entry) above
Target sequence in this assay (Q96SW2 whole entry): as the sequence (Q96SW2 whole entry) above

[5] = molecular target: von Hippel-Lindau disease tumor suppressor/Dual specificity protein kinase TTK (Homo sapiens, UniProt P33981+P40337); experiment: Protac activity at VHL/TTK in human HCT-116 cells assessed as degradation of TTK measured after 6 hrs by Western blotting analysis; assay type: cell-based
COLO 205 [6] = experiment: Antiproliferative against human COLO 205 cells assessed as cell viability after 4 days by CCK-8 assay; assay type: functional, cell-based; settings: COLO 205, 96 h
[7] = molecular target: T1, Protein cereblon/Dual specificity protein kinase TTK; experiment: Protac activity at CRBN/TTK in human COLO 205 cells assessed as induction of TTK degradation at 5 nM after 16 hrs post washout by Western blot analysis; assay type: cell-based
Target sequence in this assay (P33981 whole entry, looked up): as the sequence (P33981 whole entry) above
Target sequence in this assay (Q96SW2 whole entry, looked up): as the sequence (Q96SW2 whole entry) above

COLO 205 [8] = experiment: Antitumor activity against human COLO205 cells xenografted in CB17-SCID mouse assessed as tumor growth inhibition at 20 mg/kg, ip daily for 16 days relative to control; assay type: functional; settings: COLO 205, ip, 384 h, time 16 day, read-out: TGI
[9] = Half life in Sprague-Dawley rat at 10 mg/kg, ip by LC-MS/MS analysis; assay type: ADME, organism-based; settings: in vivo
LoVo = experiment: Antiproliferative against human LoVo cells assessed as cell viability at 0.0001 to 100 uM at day 4 by CCK-8 assay; assay type: functional, cell-based; settings: dose 0.0001-100 µM
[10] = molecular target: T1, Protein cereblon/Dual specificity protein kinase TTK; experiment: Protac activity at CRBN/TTK in human COLO 205 cells assessed as induction of TTK degradation at 5 nM after 6 to 8 hrs post washout by Western blot analysis; assay type: cell-based; settings: time 6-8 hrs
Target sequence in this assay (P33981 whole entry, looked up): as the sequence (P33981 whole entry) above
Target sequence in this assay (Q96SW2 whole entry, looked up): as the sequence (Q96SW2 whole entry) above

[11] = molecular target: T1, Protein cereblon/Dual specificity protein kinase TTK; experiment: Protac activity at CRBN/TTK in human COLO 205 cells assessed as induction of TTK degradation in presence of MG132 incubated for 1 hr by Western blotting analysis relative to control; assay type: cell-based
Target sequence in this assay (P33981 whole entry, looked up): as the sequence (P33981 whole entry) above
Target sequence in this assay (Q96SW2 whole entry, looked up): as the sequence (Q96SW2 whole entry) above

[12] = Toxicity in CB17-SCID mouse xenografted with human […] cells assessed as effect on body weight at 10 to 20 mg/kg, ip daily for 16 days; assay type: organism-based, COLO 205; settings: in vivo, 384 h, dose 10-20 mg/kg, time 16 day
[13] = molecular target: T1, Protein cereblon/Dual specificity protein kinase TTK; experiment: Protac activity at CRBN/TTK in human HCT-8 cells assessed as degradation of TTK measured at […] for 6 hrs by Western blotting analysis; assay type: cell-based; settings: dose lower 5.0 µM
Target sequence in this assay (P33981 whole entry, looked up): as the sequence (P33981 whole entry) above
Target sequence in this assay (Q96SW2 whole entry, looked up): as the sequence (Q96SW2 whole entry) above

[14] = molecular target: T1, Protein cereblon/Dual specificity protein kinase TTK; experiment: Protac activity at CRBN/TTK in human LoVo cells assessed as degradation of TTK measured at […] for 6 hrs by Western blotting analysis; assay type: cell-based; settings: dose lower 5.0 µM
HCT-29 = experiment: Antiproliferative against human […] cells assessed as cell viability at 0.0001 to 100 uM at day 4 by CCK-8 assay; assay type: functional, cell-based; settings: dose 0.0001-100 µM
HCT-8 = experiment: Antiproliferative against human HCT-8 cells assessed as cell viability at 0.0001 to 100 uM at day 4 by CCK-8 assay; assay type: functional, cell-based; settings: dose 0.0001-100 µM
[15] = molecular target: T1, Protein cereblon/Dual specificity protein kinase TTK; experiment: In vivo protac activity at CRBN/TTK in human COLO-205 cells xenografted in CB17-SCID mouse at 10 to 20 mg/kg, ip daily for 16 days by western blotting analysis; assay type: organism-based; settings: dose 10-20 mg/kg, time 16.0 day
COLO 205 [16] = experiment: Antitumor activity against human COLO205 cells xenografted in CB17-SCID mouse assessed as tumor growth inhibition at 10 mg/kg, ip daily for 16 days relative to control; assay type: functional, organism-based; settings: time 16.0 day
[17] = molecular target: T1, Protein cereblon/Dual specificity protein kinase TTK; experiment: Protac activity at CRBN/TTK in human COLO 205 cells assessed as induction of TTK degradation in presence of N-[4-[2-[2-methoxy-4-(4-methylpiperazin-1-yl)anilino]-5-methyl-7-oxo-pyrido[2,3-d]pyrimidin-8-yl]cyclohexyl]propanamide after 6 hrs by Western blotting relative to control; assay type: cell-based
[18] = AUC in Sprague-Dawley rat at 10 mg/kg, ip by LC-MS/MS analysis; assay type: ADME, organism-based; design: dose 10 mg/kg; settings: in vivo
[19] = molecular target: T1, Protein cereblon/Dual specificity protein kinase TTK; experiment: Protac activity at CRBN/TTK in human […] cells assessed as degradation of TTK measured at […] for 6 hrs by Western blotting analysis; assay type: cell-based; settings: dose lower 5.0 µM

Sequence of von Hippel-Lindau disease tumor suppressor/Dual specificity protein kinase TTK (P33981 whole entry): as the sequence (P33981 whole entry) above
Sequence of von Hippel-Lindau disease tumor suppressor/Dual specificity protein kinase TTK (P40337 whole entry): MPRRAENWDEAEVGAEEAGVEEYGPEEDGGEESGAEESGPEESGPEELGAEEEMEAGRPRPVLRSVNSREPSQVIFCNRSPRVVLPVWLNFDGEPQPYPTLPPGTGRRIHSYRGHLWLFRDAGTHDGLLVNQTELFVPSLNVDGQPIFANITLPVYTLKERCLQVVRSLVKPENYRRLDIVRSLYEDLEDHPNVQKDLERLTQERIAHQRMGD

| DC50 [1] | Emax [2] | Emax [3] | DC50 [4] | Structure (SMILES) | other results |
| --- | --- | --- | --- | --- | --- |
| 496 nM | 37% | 73% | 46 nM | CCC(=O)N[C@H]1CC[C@@H](n2c(=O)cc(C)c3cnc(Nc4ccc(N5CCN(C(=O)CCCCCCCC#Cc6cccc7c6C(=O)N(C6CCC(=O)NC6=O)C7)CC5)cc4OC)nc32)CC1 (some centres undefined) | – |
| 25.4 nM | 57% | 77% | 3.3 nM | CCC(=O)N[C@H]1CC[C@@H](n2c(=O)cc(C)c3cnc(Nc4ccc(N5CCN(C(=O)CCCC#Cc6ccc7c(c6)C(=O)N(C6CCC(=O)NC6=O)C7)CC5)cc4OC)nc32)CC1 (some centres undefined) | – |
| – | – | – | – | CCC(=O)N[C@H]1CC[C@@H](n2c(=O)cc(C)c3cnc(Nc4ccc(N5CCN(CCCCOCCC(=O)N[C@H](C(=O)N6C[C@H](O)C[C@H]6C(=O)NCc6ccc(-c7scnc7C)cc6)C(C)(C)C)CC5)cc4OC)nc32)CC1 | DC50 [5]: > 1000 nM |
| 49.6 nM | 66% | 87% | 2.2 nM | CCC(=O)N[C@H]1CC[C@@H](n2c(=O)cc(C)c3cnc(Nc4ccc(N5CCN(C(=O)CCCCCCCCCC#Cc6cccc7c6CN(C6CCC(=O)NC6=O)C7=O)CC5)cc4OC)nc32)CC1 (some centres undefined) | – |
| > 1000 nM | 13% | 88% | 21.7 nM | CCC(=O)N[C@H]1CC[C@@H](n2c(=O)cc(C)c3cnc(Nc4ccc(N5CCN(C(=O)CCCCCCCCCC#Cc6cccc7c6C(=O)N(C6CCC(=O)NC6=O)C7)CC5)cc4OC)nc32)CC1 (some centres undefined) | – |
| > 1000 nM | 43% | 28% | 599 nM | CCC(=O)N[C@H]1CC[C@@H](n2c(=O)cc(C)c3cnc(Nc4ccc(N5CCN(C(=O)CCCC#Cc6cccc7c6CN(C6CCC(=O)NC6=O)C7=O)CC5)cc4OC)nc32)CC1 (some centres undefined) | – |
| 161 nM | 43% | 84% | 7 nM | CCC(=O)N[C@H]1CC[C@@H](n2c(=O)cc(C)c3cnc(Nc4ccc(N5CCN(C(=O)CCCCCCCC#Cc6ccc7c(c6)C(=O)N(C6CCC(=O)NC6=O)C7)CC5)cc4OC)nc32)CC1 (some centres undefined) | – |
| > 1000 nM | 28% | 64% | 30.3 nM | CCC(=O)N[C@H]1CC[C@@H](n2c(=O)cc(C)c3cnc(Nc4ccc(N5CCN(C(=O)CCCC#Cc6cccc7c6C(=O)N(C6CCC(=O)NC6=O)C7)CC5)cc4OC)nc32)CC1 (some centres undefined) | – |
| – | – | – | – | CCC(=O)N[C@H]1CC[C@@H](n2c(=O)cc(C)c3cnc(Nc4ccc(N5CCN(C(=O)CCCC#Cc6ccc7c(c6)CN(C6CCC(=O)N(C)C6=O)C7=O)CC5)cc4OC)nc32)CC1 (some centres undefined) | IC50 (COLO 205 [6]): 1500 nM |
| 12.4 nM | 77% | 82% | 3.1 nM | CCC(=O)N[C@H]1CC[C@@H](n2c(=O)cc(C)c3cnc(Nc4ccc(N5CCN(C(=O)CCCCCC#Cc6ccc7c(c6)C(=O)N(C6CCC(=O)NC6=O)C7)CC5)cc4OC)nc32)CC1 (some centres undefined) | Activity [7]: inactive; inhibition in vivo at 20 mg/kg (COLO 205 [8]): 36.7%; half-life [9]: 3.2 h; Activity (LoVo): Dose-Dependent Effect; Activity [10]: Active; Activity [11]: inactive; Activity [12]: Non-Toxic; Activity [13]: Dose-Dependent Effect; IC50 (COLO 205 [6]): 200 nM; Activity [14]: Dose-Dependent Effect; Activity (HCT-29): Dose-Dependent Effect; Activity (HCT-8): Dose-Dependent Effect; Activity [15]: Active; Activity (COLO 205 [16]): inactive; Activity [17]: inactive; AUC [18]: 2330 ng·h/mL; Activity [19]: Dose-Dependent Effect |
| – | – | – | – | CCC(=O)N[C@H]1CC[C@@H](n2c(=O)cc(C)c3cnc(Nc4ccc(N5CCN(CCCCCCOCCC(=O)N[C@H](C(=O)N6C[C@H](O)C[C@H]6C(=O)NCc6ccc(-c7scnc7C)cc6)C(C)(C)C)CC5)cc4OC)nc32)CC1 | DC50 [5]: > 1000 nM |
| 58.1 nM | 53% | 84% | 7 nM | CCC(=O)N[C@H]1CC[C@@H](n2c(=O)cc(C)c3cnc(Nc4ccc(N5CCN(C(=O)CCCCCCCC#Cc6cccc7c6CN(C6CCC(=O)NC6=O)C7=O)CC5)cc4OC)nc32)CC1 (some centres undefined) | – |
| – | – | – | – | CCC(=O)N[C@H]1CC[C@@H](n2c(=O)cc(C)c3cnc(Nc4ccc(N5CCN(C(=O)CCCCCC#Cc6ccc7c(c6)C(=O)N(C6CCC(=O)N(C)C6=O)C7)CC5)cc4OC)nc32)CC1 (some centres undefined) | IC50 (COLO 205 [6]): 1500 nM |
| 663 nM | 50% | 85% | 3 nM | CCC(=O)N[C@H]1CC[C@@H](n2c(=O)cc(C)c3cnc(Nc4ccc(N5CCN(C(=O)CCCCCCCC#Cc6ccc7c(c6)CN(C6CCC(=O)NC6=O)C7=O)CC5)cc4OC)nc32)CC1 (some centres undefined) | – |
| – | – | – | – | CCC(=O)N[C@H]1CC[C@@H](n2c(=O)cc(C)c3cnc(Nc4ccc(N5CCN(CCCCCCCCOCCC(=O)N[C@H](C(=O)N6C[C@H](O)C[C@H]6C(=O)NCc6ccc(-c7scnc7C)cc6)C(C)(C)C)CC5)cc4OC)nc32)CC1 | DC50 [5]: > 1000 nM |
| > 1000 nM | 41% | 72% | 31.3 nM | CCC(=O)N[C@H]1CC[C@@H](n2c(=O)cc(C)c3cnc(Nc4ccc(N5CCN(C(=O)CCCCCC#Cc6cccc7c6C(=O)N(C6CCC(=O)NC6=O)C7)CC5)cc4OC)nc32)CC1 (some centres undefined) | – |
| 30.2 nM | 83% | 85% | 5.6 nM | CCC(=O)N[C@H]1CC[C@@H](n2c(=O)cc(C)c3cnc(Nc4ccc(N5CCN(C(=O)CCCCCCCCCC#Cc6ccc7c(c6)CN(C6CCC(=O)NC6=O)C7=O)CC5)cc4OC)nc32)CC1 (some centres undefined) | – |
| 35 nM | 61% | 86% | 1.5 nM | CCC(=O)N[C@H]1CC[C@@H](n2c(=O)cc(C)c3cnc(Nc4ccc(N5CCN(C(=O)CCCCCC#Cc6ccc7c(c6)CN(C6CCC(=O)NC6=O)C7=O)CC5)cc4OC)nc32)CC1 (some centres undefined) | – |
| 20.3 nM | 50% | 76% | 5 nM | CCC(=O)N[C@H]1CC[C@@H](n2c(=O)cc(C)c3cnc(Nc4ccc(N5CCN(C(=O)CCCCCC#Cc6cccc7c6CN(C6CCC(=O)NC6=O)C7=O)CC5)cc4OC)nc32)CC1 (some centres undefined) | – |
| – | – | – | – | CCC(=O)N[C@H]1CC[C@@H](n2c(=O)cc(C)c3cnc(Nc4ccc(N5CCN(CCOCCC(=O)N[C@H](C(=O)N6C[C@H](O)C[C@H]6C(=O)NCc6ccc(-c7scnc7C)cc6)C(C)(C)C)CC5)cc4OC)nc32)CC1 | DC50 [5]: > 1000 nM |
| 5.8 nM | 80% | 88% | 1.7 nM | CCC(=O)N[C@H]1CC[C@@H](n2c(=O)cc(C)c3cnc(Nc4ccc(N5CCN(C(=O)CCCC#Cc6ccc7c(c6)CN(C6CCC(=O)NC6=O)C7=O)CC5)cc4OC)nc32)CC1 (some centres undefined) | Activity [7]: inactive; inhibition in vivo at 20 mg/kg (COLO 205 [8]): 46%; half-life [9]: 4.3 h; Activity (LoVo): Dose-Dependent Effect; Activity [10]: Active; Activity [11]: inactive; Activity [12]: Non-Toxic; Activity [13]: Dose-Dependent Effect; IC50 (COLO 205 [6]): 100 nM; Activity [14]: Dose-Dependent Effect; Activity (HCT-29): Dose-Dependent Effect; Activity (HCT-8): Dose-Dependent Effect; Activity [15]: Active; Activity (COLO 205 [16]): inactive; Activity [17]: inactive; AUC [18]: 2240 ng·h/mL; Activity [19]: Dose-Dependent Effect |
| 74.5 nM | 66% | 87% | 19.1 nM | CCC(=O)N[C@H]1CC[C@@H](n2c(=O)cc(C)c3cnc(Nc4ccc(N5CCN(C(=O)CCCCCCCCCC#Cc6ccc7c(c6)C(=O)N(C6CCC(=O)NC6=O)C7)CC5)cc4OC)nc32)CC1 (some centres undefined) | – |
